This series can be described thus: in vitro. Conditions: human, hek293t cells.
Turning to `N#CC(=Cc1ccc(-c2ccc(F)cc2)o1)C(=O)NC1CCCCC1` [9-H17, 2-cyano-N-cyclohexyl-3-[5-(4-fluorophenyl)furan-2-yl]prop-2-enamide], the viability at 48 h, 25 µM was 77.1%.

On to `N#CC(=Cc1c(C2CC2)nc2sccn12)C(=O)NC1CCCCC1` [9-H18, 2-cyano-N-cyclohexyl-3-{6-cyclopropylimidazo[2,1-b][1,3]thiazol-5-yl}prop-2-enamide], for which the viability at 48 h, 25 µM worked out at 86.8%.

As to `N#CC(=Cc1ccc(Cl)cc1Cl)C(=O)Nc1nccs1` [9-H19, 2-cyano-3-(2,4-dichlorophenyl)-N-(1,3-thiazol-2-yl)prop-2-enamide], the viability at 48 h, 25 µM was determined as 121%.

Regarding `N#CC(=Cc1ccco1)C(=O)NS(=O)(=O)c1cccc2cnccc12` [9-H20, 2-cyano-3-(furan-2-yl)-N-(isoquinoline-5-sulfonyl)prop-2-enamide], the viability at 48 h, 25 µM is 105%.

For `COc1cc(C=C(C#N)C(=O)NC2CCCCC2C)cc(OC)c1O` (stereo not shown) [9-H21, 2-cyano-3-(4-hydroxy-3,5-dimethoxyphenyl)-N-(2-methylcyclohexyl)prop-2-enamide], the viability at 48 h, 25 µM is 95.8%.

On to `N#CC(=Cc1ccsc1)C(=O)NCc1ccco1` [9-H22, 2-cyano-N-[(furan-2-yl)methyl]-3-(thiophen-3-yl)prop-2-enamide], for which the viability at 48 h, 25 µM came out at 123%.

Regarding `CCCn1c(C)cc(C=C(C#N)C(=O)N2CCCC2)c1C` [9-I03, 3-(2,5-dimethyl-1-propyl-1H-pyrrol-3-yl)-2-(pyrrolidine-1-carbonyl)prop-2-enenitrile], the viability at 48 h, 25 µM came to 134%.

As to `N#CC(=Cc1ccc(C(F)(F)F)cc1)C(=O)Nc1ccccc1` [9-I04, 2-cyano-N-phenyl-3-[4-(trifluoromethyl)phenyl]prop-2-enamide], the viability at 48 h, 25 µM was determined as 93.7%.

Take `COc1cc(CNC(=O)C(C#N)=Cc2ccco2)c2ccccc2n1` [9-I05, 2-cyano-3-(furan-2-yl)-N-[(2-methoxyquinolin-4-yl)methyl]prop-2-enamide]: the viability at 48 h, 25 µM worked out at 114%.

As for `N#CC(=Cc1ccsc1)C(=O)Nc1ccc(Cl)cc1` [9-I06, N-(4-chlorophenyl)-2-cyano-3-(thiophen-3-yl)prop-2-enamide], the viability at 48 h, 25 µM was found to be 112%.

For the compound `Cc1nn(C)c(C)c1C=C(C#N)C(=O)Nc1ccccc1F` [9-I07, 2-cyano-N-(2-fluorophenyl)-3-(1,3,5-trimethyl-1H-pyrazol-4-yl)prop-2-enamide], the viability at 48 h, 25 µM was determined as 122%.

Turning to `CN(C)c1ccc(C=C(C#N)C(=O)Nc2ccccc2C(=O)O)cc1` [9-I08, 2-{2-cyano-3-[4-(dimethylamino)phenyl]prop-2-enamido}benzoic acid], the viability at 48 h, 25 µM worked out at 95.5%.

As for `CC(C)NC(=O)C(C#N)=Cc1ccc(F)cc1` [9-I09, 2-cyano-3-(4-fluorophenyl)-N-(propan-2-yl)prop-2-enamide], the viability at 48 h, 25 µM was 119%.

With `COc1cc(C=C(C#N)C(=O)NCc2ccccc2)cc2c1OCCO2` [9-I10, N-benzyl-2-cyano-3-(8-methoxy-2,3-dihydro-1,4-benzodioxin-6-yl)prop-2-enamide], the viability at 48 h, 25 µM worked out at 118%.

For the compound `CC(C)NC(=O)C(C#N)=Cc1ccc(C(C)C)cc1` [9-I11, 2-cyano-N-(propan-2-yl)-3-[4-(propan-2-yl)phenyl]prop-2-enamide], the viability at 48 h, 25 µM is 78.1%.

In the case of `Cc1cc(C=C(C#N)C(N)=O)c(C)n1-c1cccc2ccccc12` [9-I12, 2-cyano-3-[2,5-dimethyl-1-(naphthalen-1-yl)-1H-pyrrol-3-yl]prop-2-enamide], the viability at 48 h, 25 µM is 86.9%.

In the case of `CCOc1cc(C=C(C#N)C(=O)NC(C)C)cc(Cl)c1O` [9-I13, 3-(3-chloro-5-ethoxy-4-hydroxyphenyl)-2-cyano-N-(propan-2-yl)prop-2-enamide], the viability at 48 h, 25 µM was determined as 87.3%.

Regarding `N#CC(=Cc1cccnc1)C(=O)NCc1ccccc1` [9-I14, N-benzyl-2-cyano-3-(pyridin-3-yl)prop-2-enamide], the viability at 48 h, 25 µM came to 113%.

On to `Cc1c(C=C(C#N)C(=O)NCc2ccccc2)cc(C#N)n1C` [9-I15, N-benzyl-2-cyano-3-(5-cyano-1,2-dimethyl-1H-pyrrol-3-yl)prop-2-enamide], for which the viability at 48 h, 25 µM is 134%.

Turning to `N#CC(=Cc1ccc(O)cc1)C(=O)NCCc1c(F)cccc1F` [9-I16, 2-cyano-N-[2-(2,6-difluorophenyl)ethyl]-3-(4-hydroxyphenyl)prop-2-enamide], the viability at 48 h, 25 µM came out at 121%.

Take `Cc1cc(C)c(NC(=O)C(C#N)=Cc2ccc(C)o2)c(C)c1` [9-I17, 2-cyano-3-(5-methylfuran-2-yl)-N-(2,4,6-trimethylphenyl)prop-2-enamide]: the viability at 48 h, 25 µM stood at 94.3%.

As to `CC1=C(C#N)C(=O)N(C)C(=O)C1=Cc1ccc(-c2ccc(F)cc2)o1` [9-I18, 5-{[5-(4-fluorophenyl)furan-2-yl]methylidene}-1,4-dimethyl-2,6-dioxo-1,2,5,6-tetrahydropyridine-3-carbonitrile], the viability at 48 h, 25 µM is 125%.

In the case of `Cc1cccc(C=C(C#N)C(=O)Nc2ccc(F)cc2)c1` [9-I19, 2-cyano-N-(4-fluorophenyl)-3-(3-methylphenyl)prop-2-enamide], the viability at 48 h, 25 µM was found to be 113%.

For the compound `N#CC(=Cc1c(F)cccc1F)C(=O)Nc1ccccc1Cl` [9-I20, N-(2-chlorophenyl)-2-cyano-3-(2,6-difluorophenyl)prop-2-enamide], the viability at 48 h, 25 µM stood at 114%.

In the case of `CC(C)(C)c1ccc(C=C(C#N)C(=O)Nc2ccc(C(=O)O)cc2)cc1` [9-I21, 4-[3-(4-tert-butylphenyl)-2-cyanoprop-2-enamido]benzoic acid], the viability at 48 h, 25 µM worked out at 128%.

`Cc1ccccc1NC(=O)C(C#N)=Cc1c(Cl)nc2ccccn12` [9-I22, 3-{2-chloroimidazo[1,2-a]pyridin-3-yl}-2-cyano-N-(2-methylphenyl)prop-2-enamide]: the viability at 48 h, 25 µM was determined as 134%.

On to `COc1cc(C=C(C#N)C(=O)Nc2nccs2)cc(OC)c1` [9-J03, 2-cyano-3-(3,5-dimethoxyphenyl)-N-(1,3-thiazol-2-yl)prop-2-enamide], for which the viability at 48 h, 25 µM came out at 104%.

Take `CC(NC(=O)C(C#N)=Cc1ccco1)c1cccc(-n2cccn2)c1` (stereo not shown) [9-J04, 2-cyano-3-(furan-2-yl)-N-{1-[3-(1H-pyrazol-1-yl)phenyl]ethyl}prop-2-enamide]: the viability at 48 h, 25 µM worked out at 95.9%.

Consider `Cc1ccc(C=C(C#N)C(=O)Nc2cccc3ncccc23)cc1` [9-J05, 2-cyano-3-(4-methylphenyl)-N-(quinolin-5-yl)prop-2-enamide], for which the viability at 48 h, 25 µM was 123%.

With `CCCCNC(=O)C(C#N)=Cc1ccc(C)s1` [9-J06, N-butyl-2-cyano-3-(5-methylthiophen-2-yl)prop-2-enamide], the viability at 48 h, 25 µM came to 94.4%.

On to `CC(=Cc1ccccc1)C=C(C#N)C(=O)Nc1ccc2c(c1)OCCO2` [9-J07, 2-cyano-N-(2,3-dihydro-1,4-benzodioxin-6-yl)-4-methyl-5-phenylpenta-2,4-dienamide], for which the viability at 48 h, 25 µM came to 79.5%.

For the compound `C=CCNC(=O)C(C#N)=CC=Cc1ccccc1` [9-J08, 2-cyano-5-phenyl-N-(prop-2-en-1-yl)penta-2,4-dienamide], the viability at 48 h, 25 µM is 96.5%.

`CC1CN(c2ccc(NC(=O)C(C#N)=Cc3ccco3)cc2)CC(C)O1` (stereo not shown) [9-J09, 2-cyano-N-[4-(2,6-dimethylmorpholin-4-yl)phenyl]-3-(furan-2-yl)prop-2-enamide]: the viability at 48 h, 25 µM was determined as 109%.

Regarding `N#CC(=Cc1coc2ccccc2c1=O)C(=O)NCCc1ccccc1` [9-J10, 2-cyano-3-(4-oxo-4H-chromen-3-yl)-N-(2-phenylethyl)prop-2-enamide], the viability at 48 h, 25 µM was 107%.

With `CCCCNC(=O)C(C#N)=Cc1c(Cl)cccc1Cl` [9-J11, N-butyl-2-cyano-3-(2,6-dichlorophenyl)prop-2-enamide], the viability at 48 h, 25 µM turned out to be 25.1%.

As for `N#CC(=Cc1c(F)cccc1F)C(=O)Nc1ccccc1F` [9-J12, 2-cyano-3-(2,6-difluorophenyl)-N-(2-fluorophenyl)prop-2-enamide], the viability at 48 h, 25 µM amounted to 103%.

On to `CC(C)NC(=O)C(C#N)=Cc1cccc(C(F)(F)F)c1` [9-J13, 2-cyano-N-(propan-2-yl)-3-[3-(trifluoromethyl)phenyl]prop-2-enamide], for which the viability at 48 h, 25 µM came out at 33.9%.

Turning to `Cc1cc(C=C(C#N)C(=O)Nc2nccs2)ccc1-n1cncn1` [9-J14, 2-cyano-3-[3-methyl-4-(1H-1,2,4-triazol-1-yl)phenyl]-N-(1,3-thiazol-2-yl)prop-2-enamide], the viability at 48 h, 25 µM was 104%.

For `Cc1cc(-n2c(C)cc(C=C(C#N)C(=O)NC3CCCC3)c2C)no1` [9-J15, 2-cyano-N-cyclopentyl-3-[2,5-dimethyl-1-(5-methyl-1,2-oxazol-3-yl)-1H-pyrrol-3-yl]prop-2-enamide], the viability at 48 h, 25 µM was determined as 91.8%.

On to `Cc1ncsc1C=C(C#N)C(=O)Nc1ccc(C(=O)N(C)C)cc1` [9-J16, 4-[2-cyano-3-(4-methyl-1,3-thiazol-5-yl)prop-2-enamido]-N,N-dimethylbenzamide], for which the viability at 48 h, 25 µM came out at 118%.

As for `Cc1nn(-c2ccccc2)c(Cl)c1C=C(C#N)C(=O)NC(C)C` [9-J17, 3-(5-chloro-3-methyl-1-phenyl-1H-pyrazol-4-yl)-2-cyano-N-(propan-2-yl)prop-2-enamide], the viability at 48 h, 25 µM came out at 98.2%.

As for `N#CC(=Cc1ccco1)C(=O)NS(=O)(=O)N1CCc2ccccc21` [9-J18, 2-cyano-N-(2,3-dihydro-1H-indole-1-sulfonyl)-3-(furan-2-yl)prop-2-enamide], the viability at 48 h, 25 µM was found to be 116%.

`N#CC(=Cc1ccc2c(c1)OCCO2)C(=O)NC1CCCCC1` [9-J19, 2-cyano-N-cyclohexyl-3-(2,3-dihydro-1,4-benzodioxin-6-yl)prop-2-enamide]: the viability at 48 h, 25 µM amounted to 118%.

`CC(C)NC(=O)C(C#N)=Cc1cccc(F)c1F` [9-J20, 2-cyano-3-(2,3-difluorophenyl)-N-(propan-2-yl)prop-2-enamide]: the viability at 48 h, 25 µM amounted to 98%.

Turning to `Cc1cc(C=C(C#N)C(=O)Nc2ccccn2)c(C)n1CC(C)C` [9-J21, 2-cyano-3-[2,5-dimethyl-1-(2-methylpropyl)-1H-pyrrol-3-yl]-N-(pyridin-2-yl)prop-2-enamide], the viability at 48 h, 25 µM is 87.2%.

`N#CC(=Cc1ccc(F)c(F)c1)C(=O)NC1CCCCC1` [9-J22, 2-cyano-N-cyclohexyl-3-(3,4-difluorophenyl)prop-2-enamide]: the viability at 48 h, 25 µM came to 101%.

Source of the values: publication PMC11995724, “Antibiotic target discovery by integrated phenotypic and activity-based profiling of electrophilic fragments” (Cell chemical biology, 2025).
